{"source": "patent US20230083717A1", "about": "“METHODS AND COMPOSITIONS FOR PROMOTING ADIPOCYTE BEIGING” (Flagship Pioneering Innovations VI, LLC, priority 2021, published 2023)", "test_system": "UCP1", "assay": "in vivo assay of induction of beige adipocytes in visceral and subcutaneous fat depots", "conditions": "1 mg/kg intraperitoneal, C57Bl6/J mice, vs control mice", "description": "An in vivo assay of induction of beige adipocytes in visceral and subcutaneous fat depots was established using the β3-receptor agonist CL316243. 8-week old male C57Bl6/J mice were dosed with 1 mg/kg CL316243 with intraperitoneal injections, either every day for 1 week or every other day for two weeks. The vehicle was used as a negative control. Following the dosage administration, the mice were sacrificed, and epididymal (visceral) and inguinal (subcutaneous) fat was excised. The expression of UCP1 was assessed in the excised epididymal (visceral) and inguinal (subcutaneous) fat, by western blot and immunohistochemistry. […] The adipose tissue cells in epididymal (visceral) and inguinal (subcutaneous) fat from CL 316234 treated mice were also smaller compared to the cells from control mice (FIG. 3A)."}
{"compound": "C[C@H](Cc1ccc2c(c1)OC(C(=O)O)(C(=O)O)O2)NC[C@H](O)c1cccc(Cl)c1", "note": "[CL 316234]", "values": [{"measurement": "expression of UCP1 by immunohistochemistry in epididymal (visceral) and inguinal (subcutaneous) fat", "value": "increased expression of UCP1"}, {"measurement": "expression of UCP1 by western blot in inguinal and epididymal fat", "value": "increased expression of UCP1"}, {"measurement": "size of adipose tissue cells in epididymal and inguinal fat", "value": "smaller"}]}
